Assay results published in a melting point compilation (Tetko et al.; mined from patent text by program, amines drawn as free bases though some values may be those of a salt).

| Structure (SMILES) | melting point |
| --- | --- |
| COc1ccc2[nH]c(C)cc2c1O | 118 to 119 °C |
| Cc1ccccc1C(=S)N1CC1C#N (configuration not stated) | 67 to 69 °C |
| COC[C@@H]1Cc2ccccc2N1S(=O)(=O)c1ccc2c(c1)C(=O)C1=NCC(C)(C)CN12 | 173 to 175 °C |
| CC(C)c1nn(-c2ccc(Br)cn2)cc1CCCO | 96 to 97 °C |
| CC1=CC(C)(C)c2ccc(Oc3ccc([N+](=O)[O-])cc3)cc2O1 | 80 °C |
| CN1C(c2ccncc2)CC(=O)CC1c1ccncc1 (configuration not stated) | 103 to 106 °C |
| O=P(O)(O)C(O)(CCc1nn(-c2ccc(F)cc2)cc1-c1ccc(Cl)cc1)P(=O)(O)O | 223 °C |
| CC(C)Oc1c(F)cc2c(O)c(C(=O)NCc3ccc(Cl)cc3)cnc2c1F | 207 to 209 °C |
| COc1cccc([C@H]2O[C@H](CC(=O)NCCCCCC(=O)O)C(=O)N(CC(C)(C)CO)c3ccc(Cl)cc32)c1OC | 96 to 98 °C |
| CCN(CC)CCNC(=O)N1CCCC(S(=O)(=O)c2ccc(F)cc2)C1 (configuration not stated) | 137 to 138 °C |
| Oc1cc(N2CCCCC2)c(Cl)cc1CCBr | 115 to 116 °C |
| CC(=O)N1CCn2nc(-c3ccc(F)cc3)c(-c3ccncc3)c2N1 | 216 to 218 °C |
| Cn1ncc(C(=O)O)c1C(=O)Nc1ccn2nc(N3CCCC3)nc2c1 | > 250 °C |
| CCc1cnc(N)c2ccccc12 | 84 to 85 °C |
| CCCCc1nnc(SC)n1Cc1ccc(-c2ccccc2-c2nnn[nH]2)cc1 | 100 to 102 °C |
| CC(C)c1ccc(C(=O)N2CCOCC2)cc1N | 112 to 115 °C |
| N#CC(=NO)c1ccc(Cl)cc1Cl | 151 °C |
| CS(=O)(=O)c1ccc(-c2oc(-c3ccccc3)nc2-c2ccc(F)cc2)cc1 | 204 to 205 °C |
| Clc1cc(I)ccc1CBr | 44 to 45.5 °C |
| CCCCc1nn(-c2cc(C(=O)N(C)CCCC)ccc2Cl)c(=O)n1Cc1ccc(-c2ccccc2S(=O)(=O)NC(=O)c2ccccc2Cl)cc1 | > 90 °C |
| CCCCCCCCOc1cc(-c2cccc(Cl)c2)c(OCC(=O)O)c(-c2cccc(Cl)c2)c1 | 113 to 116 °C |
| CS(=O)(=O)c1ccc(-c2[nH]c(C(O)(C(F)(F)F)C(F)(F)F)nc2-c2ccccc2)cc1 | 223 to 225 °C |
| COCCCc1cc(N(C)Cc2ccc(-c3ccc(C(F)(F)F)cc3)nc2)ccc1OCC(=O)O | 72 to 76 °C |
| O=C(CN1C(=O)C2(COc3ccc(Br)cc32)c2ccccc21)Nc1ccccc1F (configuration not stated) | 100 to 103 °C |
| O=C(N[C@@H](CCC1CCCCC1)[C@@H](O)[C@@H](O)CN1CCOCC1)OCc1ccccc1 | 124 to 125 °C |
| O=S(=O)(c1ccc(Cl)cc1)C(CCCCF)c1cc(F)ccc1F (configuration not stated) | 77 to 78 °C |

| Structure (SMILES) | melting point |
| --- | --- |
| Cc1ccc2c(c1)[nH]c(=O)n2CCCN1CCN(C(c2ccccc2)c2ccccc2)CC1 | 178 °C |
| CC(CS)C(=O)N(CC(=O)O)C1CCCCC1 (configuration not stated) | 158 to 160 °C |
| Cc1c(C)c2c(c(C)c1N)OC(C)(C)C2c1ccc(C(C)C)cc1 (configuration not stated) | 120 to 121 °C |
| CC1(C)CCC(C)(C)c2cc(C(=O)C=Cc3ccc(C(=O)O)c(O)c3)ccc21 | 260 to 261 °C |
| O=[N+]([O-])CC(O)c1nn(Cc2ccccc2)c2ccccc12 (configuration not stated) | 100 to 101 °C |
| CC1(C)c2cccn2-c2cc(F)c(F)cc2N1S(=O)(=O)c1ccc(O)cc1 | 202 to 204 °C |
| COc1ccccc1N1CCN(C(=O)CCCN2CC=C(c3c[nH]c4cc(Cl)ccc34)CC2)CC1 | 93 to 95 °C |
| CCCC(=O)C(=O)C(CC1CCCCC1)NC(=O)C(CC(C)C)NC(=O)C(Cc1ccccc1)NC(=O)OC(C)(C)C (configuration not stated) | 87 to 92 °C |
| CC(C)(C)[Si](C)(C)O[C@@H]1C=CO[C@H](CO)[C@H]1O | 55 to 56 °C |
| Cn1ncc(-c2ccc(O)cc2)cc1=O | 296 to 298 °C |
| Cn1cc(C2=C(c3cccc4ccccc34)C(=O)NC2=O)c2ccccc21 | 258 to 260 °C |
| COc1cc2ncn(CCCCCl)c(=O)c2cc1OC | 117 °C |
| CSC(C)=NOC(=O)N(C)SCCSN(C)C(=O)ON=C(SC)C(=O)N(C)C | 102 to 106 °C |
| CC(C)(C)Cc1nc2cc(CC(=O)O)ccc2o1 | 108 to 109 °C |
| Cn1cnc2cc3[nH]c(-c4ccncc4)nc3cc21 | > 280 °C |
| Cc1nc(Sc2cccc(C(F)(F)F)n2)sc1CC(=O)O | 162 to 164 °C |
| CCC(=O)C(Cc1cc(C#N)cc(C#N)c1)C(=O)CC | 67 to 69 °C |
| CC(C#Cc1ccc(Br)cc1)N(O)C(N)=O (configuration not stated) | 155 to 157 °C |
| COc1cc2c(cc1Nc1ncc(Cl)c(Nc3ccccc3S(=O)(=O)N3CCCC3)n1)CCN(CCO)CC2 | 110 °C |
| O=c1nc(NCCCOc2cc(CN3CCCCC3)ccn2)c2ccccc2[nH]1 | 189 to 192 °C |
| Cc1sc2cc(CC(=O)O)ccc2c1Br | 150 to 152 °C |
| CCCc1nc2c(N)nc3cc(Br)ccc3c2n1CCCONC(=O)C(C)C | 176 to 178 °C |
| COC(=O)c1sc(-c2ccccc2)cc1NC(C)=O | 115 °C |
| Cc1nc(CCCCCn2cnc3c2c(=O)n(C)c(=O)n3C)no1 | 160 to 162 °C |
| CCc1cc(OC)c(C=C(C)[N+](=O)[O-])cc1OC | 63 to 64 °C |
| Cc1ccc2c(c1)[nH]c(=O)n2CCCN1CCC(C(=O)c2ccc(F)cc2)CC1 | 149 °C |

| Structure (SMILES) | melting point |
| --- | --- |
| CN(C)CCOc1ccc2[nH]c(C(=O)N3CC(CCl)c4c3cc(OCc3ccccc3)c3ncccc43)cc2c1 (configuration not stated) | 176 to 179 °C |
| ON=C1CCC(C2CCCCC2)=C1c1ccc(F)cc1 | 173 to 176 °C |
| CCC(=O)Nc1c(C(=O)c2cc(Cl)ccc2NC(C)=O)[nH]c2cc(Cl)ccc12 | 264 to 266 °C |
| CC(C)n1nc(-c2sc(NC(=O)c3ccc(CN4CCOCC4)cc3)nc2-c2ccccc2)ccc1=O | 222 to 224 °C |
| CCn1c(-c2cc(OC)c(OC)cc2S(N)(=O)=O)cc(=Nc2c(C)cc(C)c(S(N)(=O)=O)c2C)n(C)c1=O | 173 to 178 °C |
| CC(C)n1nc(-c2sc(C(N)=O)nc2-c2cccc(F)c2)ccc1=O | 248 to 250 °C |
| O=C(O)C1Cc2c(c(Cl)cc3c(-c4ccc(F)cc4)noc23)O1 (configuration not stated) | 215 to 218 °C |
| COc1cc(-c2cc3ccccc3[nH]2)ccc1O | 165 °C |
| N[C@@]1(C(=O)O)C[C@H](NC(=O)Nc2ccc(Cl)cc2)[C@H]2[C@H](C(=O)O)[C@H]21 (relative stereo) | > 250 °C |
| N#CC(C#N)C(=O)c1ccsc1 | 132 to 133 °C |
| C[C@H](NC(=O)OCc1ccccc1)C(=O)c1ccc(OCc2ccccc2)cc1 | 89 to 91 °C |
| CNC(=O)Cc1cccc2ccoc12 | 138 to 142 °C |
| O=C(O)c1cc(S(=O)(=O)Nc2ccc(Cl)cc2Cl)ccc1Cl | 174 °C |
| O=C(Nc1ccc([N+](=O)[O-])cc1Cl)OCCCl | 128 to 130 °C |
| O=P1(O)OCc2ccccc21 | 167 °C |
| Nc1nc(NCCC2=CCCCC2)nc2c1ncn2C1OC(CO)C(O)C1O (configuration not stated) | 135 to 138 °C |
| Brc1ccn2nc(N3CCCC3)nc2c1 | 170 to 172 °C |
| O=[N+]([O-])c1c(Br)nn(Cc2ccc(Cl)cc2)c1Br | 109 °C |
| COCC1COC(Cn2cncn2)(c2ccc(Cl)cc2Cl)O1 (configuration not stated) | 64 to 74 °C |
| CN1C(=O)C(Cc2ccccc2)(c2ccccc2OCCCCBr)c2ccccc21 (configuration not stated) | 174 to 175 °C |
| CCOC(=O)c1c(Cn2cnnc2)nc2sc(C)c(C)c2c1-c1ccc(OC)c(OC)c1 | 187 to 188 °C |
| O=S1(=O)N=C(NC2CCCC2)Nc2cc(Cl)sc21 | 291 to 292 °C |
| O=CN(O)C(CC1CCC2(CC1)OCCO2)CS(=O)(=O)c1ccc(Oc2ccc(OC(F)(F)F)cc2)cc1 (configuration not stated) | 140 to 141 °C |
| CSc1ccc(C(=N)Nc2ccc(F)cc2)cc1 | 145 to 147 °C |
| COc1cc(OC)c2c(c1)c(-c1cc3cccnc3[nH]1)cn2C | 220 °C |
| CCSNc1c(C#N)cnn1-c1c(Cl)cc(C(F)(F)F)cc1Cl | 157 to 158 °C |

| Structure (SMILES) | melting point |
| --- | --- |
| COc1ccccc1N1CCN(CC(C(=O)O)c2ccccc2)CC1 (configuration not stated) | 160 to 163 °C |
| Cc1c(C)c2c(c(C)c1N)CC(C)(CN1CCCCC1)O2 (configuration not stated) | 60 to 61 °C |
| C=C1CC2(CN3CCC2CC3)SC1C (configuration not stated) | 164 to 168 °C |
| CCNC(=O)N=C(NC(=O)Nc1ccccc1C)SC | 152 to 153 °C |
| CCOC(=O)c1cn(C2CC2)c2c(OC)c(F)c(F)cc2c1=O | 178 to 180 °C |
| COc1cn(-c2ccc(-c3cnn(C(F)F)c3)cc2F)nc(-c2ccnn2-c2ccccc2)c1=O | 185 to 187 °C |
| CC(=O)c1[nH]cnc1C | 140 to 142 °C |
| Nc1cccc(-c2ccc(CCN3Cc4ccccc4C3)cc2)n1 | 140 to 143 °C |
| Nc1nccc(Oc2ccc3c(c2)CCCCN3C(=O)Nc2cccc(C(F)(F)F)c2)n1 | 207 °C |
| CC(C)(NC(=O)OCc1ccccc1)C(=O)NCCCc1ccccc1 | 84 to 92 °C |
| C[C@H]1CCCC(C)(C)[C@@H]1[C@H](O)c1ccccc1 | 32 to 34 °C |
| Cc1ccc(N2C(=O)C3=C(SCCO3)C2OC(=O)N2CCN(C)CC2)nc1 (configuration not stated) | 183 °C |
| CC(=O)CC(=O)N1CCc2cc(C(O)(C(F)(F)F)C(F)(F)F)ccc21 | 150 to 151 °C |
| COC1NC(=O)N(C2CCCCC2)C1=O (configuration not stated) | 135 to 137 °C |
| CCN(CC)c1cccc(CCC(N)=O)c1 | 59 °C |
| CNC(=O)[C@H](C)C[C@H](O)[C@H](CC1CCCCC1)NC(=O)OC(C)(C)C | 144 to 145 °C |
| CCOC(=O)c1cc(=O)c2c(OCCn3c(=O)sc4ccc(Cl)cc43)cccc2o1 | 177 to 178 °C |
| Cc1nnc2c(-c3cccnc3)cccn12 | 112 to 115 °C |
| COc1ccc(SC(C(=O)O)c2ccccc2)c(Cl)c1Cl (configuration not stated) | 180 to 182 °C |
| O=C(O)COc1ccc(-c2nc3cnccc3[nH]2)c(O)c1 | 235 °C |
| COc1cc2c(cc1OCCCN1CCC(c3noc4cc(F)ccc34)CC1)CCCC2=O | 129 to 131 °C |
| CCCCn1c(=O)n(CCC)c(=O)c2c3n(nc21)CCCCN3C | 63 to 65 °C |
| COC(=O)c1ccc2c(=O)n(Cc3ccc(OC)cc3)c(=O)[nH]c2c1 | 254 to 256 °C |
| CCOC(=O)C1=C(C)Nc2ccn(CCCN(C)C)c(=O)c2C1c1cccc([N+](=O)[O-])c1 (configuration not stated) | 212 to 213 °C |
